Test results reported in patent US10149644B2, “Curcumin derivatives for amyloid-β plaque imaging” (The General Hospital Corporation, priority 2008, dated 2018).
Entries after “also recorded” stand apart in the source; their conditions may differ.

Columns and labels:
BSA = target: T1, BSA (Bos taurus, UniProt P02769); experiment: BSA interaction; type: binding; settings: BSA 20 μg/mL, probe 5 μM
T1 construct: purchased Sigma
Description: CRANAD-2 was added to a BSA (20 μg/mL) solution to make the final concentration of 5 μM. The fluorescence spectrum of the above mixture was recorded (excited at 590 nm). For comparisons, CRANAD-2 (5 μM) in PBS, PBS alone, and Aβ40 aggregates ([…]) and CRANAD-2 (5 μM) were prepared.
Since serum albumin is the most abundant plasma protein, it was important to test whether the probe had any affinity toward this protein. To test this the inventors incubated CRANAD-2 probe with BSA. For controls, the inventors used PBS buffer alone, the probe incubated in PBS alone, and with Aβ40 aggregates. […] In addition, the inventors tested CRANAD-2 stability by incubating the probe (4×10^−6M) with human serum for 2 hours at 37° C.

[1] = BBB penetration and blood/brain clearance; type: in vivo, Balb/c mice; settings: 10 mg/kg i.v.
Description: To test the BBB penetrating ability of the probe, Balb/c mice were used (n=3). […] Mice were perfused with saline solution and the brains were excised at 30 min., 1 h, 2 h, and 4 h after injection. Each brain sample was homogenized with 2.0 ml water and 3.0 ml ethyl acetate, and the homogenate was centrifuged for 5 min at 2,500 rpm. The fluorescence intensities of the ethyl acetate supernatant were recorded. The actual amounts (pmol) of the extracted probe were calculated according to the standard curve of CRANAD-2 in ethyl acetate.
Prior to perfusion, blood samples were taken at each time point to monitor the probe blood clearance. The blood samples were diluted with PBS buffer to 1.0 mL, followed by ethyl acetate (2.0 mL) extraction. The extractions were subjected to fluorescence intensity measurement, and the actual amounts of the probe for each mouse were calculated as the procedure for brain extraction described above.
In addition, to follow the probe clearance the inventors drew blood samples at each time point. […] LC-MS results also confirmed that the major component of the ethyl acetate extraction was CRANAD-2.

[2] = Fluorescence emission properties of the probes; type: physicochemical
Description: Reagents used for synthesis were purchased from Aldrich without further purification. Column chromatography was performed on silica gel (SiliCycle Inc., 60 Å, […]) slurry packed into glass columns. Thioflavin S was purchased from Aldrich. Synthetic amyloid-b protein (1-40) was purchased from rPeptide (Bogart, Ga., 30622) and aggregates for in vitro studies were generated followed the reported procedure. BSA was purchased from Sigma, and human serum was obtained from Invitrogen (type AB). ^1H and ^13C NMR spectra were recorded at 400 MHz and 100 MHz respectively, and are reported in ppm downfield from tetramethylsilane. Fluorescence studies were carried out with F-4500 Fluorescense Spectrophotometer. Fluorescence quantum yields were determined using aqueous solution of Cy5.5-maleimide as a standard (y=0.23). High resolution mass spectra were obtained at the Harvard University, Department of Chemistry Instrumentation Facility. Transgenic Tg2576 mice {45} and littermates were purchased from Taconic Farm, Balb/c mice for BBB penetrating test were obtained from Jackson Laboratory, and the experiment procedure was approved by Massachusetts General Hospital. In vivo imaging was recorded on Kodak Imaging Station 2000MM.
Furthermore, by comparing the fluorescence intensity in methanol, the quantum yield of CRANAD-2 was significant higher than that of curcumin (FIG. 2). […] Additionally, these modifications produced a large stokes shift and improved quantum yield of CRANAD-2. The synthesized compound produced the longest emission and the largest stokes shift among the existing probes for senile plaque detection {3}.

Aβ40 aggregates = target: T2, Aβ40 aggregates (Homo sapiens, UniProt P05067); experiment: Fluorescence response of probe to Aβ40 aggregates, Aβ40 monomer and PBS; type: binding
T2 construct: Synthetic amyloid-b protein (1-40) was purchased from rPeptide; purchased rPeptide (Bogart, Ga.)
Description: We compared the fluorescence intensity of CRANAD-2 with PBS (pH 7.4), Aβ40 peptide, and Aβ40 aggregates generated from Cu^2+ induced aggregation.

Aβ plaques = experiment: Histological staining of Tg2576 mice brain slices; settings: co-staining with Thioflavin S
Description: Tg2576 mice brain tissue was cut into 25 micron slices. The slices were fixed with 4% formalin for 5 min and washed with PBS buffer twice. For Thioflavin S staining the slices were dipped into thioflavin S solution (1.0% in 50% ethanol) for 5 min., then differentiated in 70% ethanol for 5 min., rinsed with distilled water twice and mounted using Vecta shield mounting medium. Similar procedure was used to incubate sliced tissue with our probe. Histological slide was treated with, 0.01% CRANAD-2 in 10% acetone, 40% ethanol and 50% water for 15 min. For co-staining: the procedure was similar. The slices were first stained with thioflavin S, and washed with 70% ethanol for 5 min, then stained with the solution of CRANAD-2.

senile plaques = experiment: Ex vivo histological correlation; type: in vivo, mice; settings: 19-month old transgenic mice, 10 mg/kg i.v.
Description: 19 month-old mouse was injected CRANAD-2 (10.0 mg/kg), and was sacrified after perfusion with 4% formaldehyde. The brain was taken and embedded in OCT. For histology, the brain was sliced into 25μ slices, and co-stained with thioflavin S as described above. To obtain ex vivo confirmation of the probe binding, mice at different ages were i.v injected with 10 mg/kg of CRANAD-2 probe, perfused and scarified at 1 h after injection.

T1 sequence (P02769 25-607): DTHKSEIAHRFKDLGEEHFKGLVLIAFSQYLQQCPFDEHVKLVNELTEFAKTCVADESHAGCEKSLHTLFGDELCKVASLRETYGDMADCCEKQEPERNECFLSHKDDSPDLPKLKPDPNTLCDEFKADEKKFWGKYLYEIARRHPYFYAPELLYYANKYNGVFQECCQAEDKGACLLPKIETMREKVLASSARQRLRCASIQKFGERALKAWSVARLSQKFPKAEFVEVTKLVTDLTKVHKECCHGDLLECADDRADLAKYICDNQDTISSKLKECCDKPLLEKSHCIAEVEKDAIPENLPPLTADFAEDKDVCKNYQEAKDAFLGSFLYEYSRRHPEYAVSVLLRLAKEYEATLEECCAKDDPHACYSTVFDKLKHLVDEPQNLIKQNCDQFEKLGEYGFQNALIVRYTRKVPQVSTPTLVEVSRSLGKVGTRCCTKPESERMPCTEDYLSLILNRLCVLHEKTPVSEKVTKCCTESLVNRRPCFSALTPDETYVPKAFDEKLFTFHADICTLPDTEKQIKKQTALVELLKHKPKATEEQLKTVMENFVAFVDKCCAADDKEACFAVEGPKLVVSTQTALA
T2 sequence (P05067 672-711 limits assumed): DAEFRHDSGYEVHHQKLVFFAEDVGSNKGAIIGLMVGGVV

CN(C)c1ccc(/C=C/C2=CC(/C=C/c3ccc(N(C)C)cc3)=[O+][B-](F)(F)O2)cc1 [CRANAD-2]
Binding to BSA / fluorescence change with BSA (BSA): did not observe any significant change in fluorescence; also recorded: did not show any significant binding; also recorded: does not show any significant binding | Clearance from blood [1]: rapid clearance from blood | Clearance from the brain vs blood [1]: significantly slower | BBB penetrating ability ([1]; brain homogenate, fluorescence, HPLC, LC-MS): capability to cross BBB | Stoke shift in PBS ([2]; PBS only): 140 nm | Stoke shift in PBS with Aβ aggregates ([2]; PBS with Aβ aggregates): 70 nm | λmax(em) ([2]; probe alone, methanol (FIG. 2)): 760 nm | λmax(ex) ([2]; probe alone, methanol (FIG. 2)): 640 nm | Fluorescence intensity with Aβ40 peptide monomer vs PBS (Aβ40 aggregates; Aβ40 monomer): did not observe any significant difference | Quantum yield in PBS buffer (Aβ40 aggregates; PBS buffer): 0.6% | Quantum yield in PBS (Aβ40 aggregates; PBS, given as fraction): 0.006 | Quantum yield after binding to Aβ40 aggregates (Aβ40 aggregates; bound to Aβ40 aggregates, given as fraction): 0.40 | Quantum yield upon binding to aggregates (Aβ40 aggregates; bound to aggregates): 40% | Fluorescence intensity increase in the presence of Aβ40 aggregates (Aβ40 aggregates; vs PBS): 70 fold | Staining of Aβ plaques in brain tissue (Aβ plaques): specificity towards Aβ plaques; also recorded: specific staining with Aβ plaques | Labelling of senile plaques ex vivo after i.v. injection (senile plaques): senile plaques were observed
